As usually defined, the EC50 is the midpoint of the concentration-response curve. Broadly, the viability is the share of living cells, or the viability signal relative to a control.

Data set [1] deals with DosR regulon genes (dosR, hspX and tgs1). The data set is described as follows: NO and vitamin C sensitivity assays (RT-PCR). The conditions noted are these: for induction of dosR / induction of hspX / induction of tgs1: 2 h. It counts as cell-based, Mycobacterium tuberculosis.
Data set [2] relates to CDC1551(hspX′:GFP) reporter. The data set is described as follows: microbe, parasite or virus in culture. The conditions noted are these: Mycobacterium tuberculosis, 6 days of treatment. It counts as cell-based, Mycobacterium tuberculosis.
The subject of the next data set is Mtb. The data set is described as follows: microbe, parasite or virus in culture. It is filed as cell-based. The conditions noted are these: Mycobacterium tuberculosis; 6 days, optical density; unit given as M; read-out: growth inhibition EC50.
Data set [3] has as its system Mtb Erdman. The conditions noted are these: 1 μM and 5 μM INH, ten days post INH treatment.
Data set [4] deals with Mtb Erdman. The data set is described as follows: microbe, parasite or virus in culture. The conditions noted are these: Mycobacterium tuberculosis, 240 h, read-out: viability, INH alone.
Setting [5] is: read-out: EC50 of inhibition of CDC1551(hspX′:GFP) reporter (dosR-dependent GFP) fluorescence.

Read-outs that look alike come from different tables or passages of the source. Some results are limits rather than exact numbers.

`[N]=O` [NO, reference compound]: in data set [1] (NO (50 μM DETA-NONOate)), the “induction of dosR” value came to 491 fold, the “induction of hspX” value is listed as 373 fold and the “induction of tgs1” value turned out to be 47 fold.

Turning to `C[C@H]1[C@@H](O)O[C@@H]2O[C@@]3(C)CC[C@H]4[C@H](C)CC[C@@H]1[C@@]24OO3` [DHA, dihydroartemisinin, reference compound], in data set [1] (80 μM pretreatment 24 h), the “reduction of magnitude of induction of transcripts in response to DETA-NONOate vs DMSO treatment” value is on record as around 2 fold.

As to `CN(C)CCCN1C(=O)c2cccc3c(Br)ccc(c23)C1=O` [HC104A, 6-bromo-2-[3-(dimethylamino)propyl]benzo[de]isoquinoline-1,3-dione], the EC50 in data set [2] (unit given as M, read-out: EC50 of inhibition of dosR-dependent GFP fluorescence) was 2.8 µM; in the data set with Mtb it was above 80 µM.

`NNC(=O)c1ccncc1` [INH, isoniazid, reference compound]: the “viability, INH alone” value in the data set on Mtb Erdman [3] was around 100%. The viability at 25 µM in the data set on Mtb Erdman [4] is around 75%.

In the case of `O=C(Nc1ccno1)Nc1ccc(Cl)cc1Cl` [HC106A, 1-(2,4-dichlorophenyl)-3-(1,2-oxazol-5-yl)urea], the figures for the EC50 (in data set [2] (setting [5]); with Mtb) were 6.9 µM and above 80 µM, respectively.

Take `CCCS(=O)(=O)N1CCN(Cc2ccc3c(c2)c2ccccc2n3CC)CC1` [HC105A, 9-ethyl-3-[(4-propylsulfonylpiperazin-1-yl)methyl]carbazole; oxalic acid]: the EC50 in data set [2] (setting [5]) was 12.7 µM; with Mtb, above 80 µM.

With `O=C1O[C@H]([C@@H](O)CO)C(O)=C1O` [vitamin C, reference compound], in data set [1] (2 mM vitamin C), the “induction of dosR” value was 4 fold, the “induction of hspX” value is 14 fold and the “induction of tgs1” value is given as 52 fold.

The values above are taken from patent US11717508B2, “Compounds, compositions, and methods for inhibiting bacterial growth” (priority 2016, dated 2023).
